Assay results reported in PubChem BioAssay AID588488 (The Scripps Research Institute Molecular Screening Center, 2011).
The source made the active and inactive calls.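 The calls were made as follows: active = inhibition of 50% or more in at least one of the four enzyme panels; inactive = below 50% inhibition in every panel.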

How the values were obtained:
Experiment in all cases: PAD1-4 inhibition by cherry-picked hits, late-stage follow-up, selectivity assay for PAD4 inhibitor project, biochemical, colorimetric, BAEE substrate, HTS hits (AID 588488)
[1] = target: Protein-arginine deiminase type-1 (Homo sapiens) (UniProt Q9ULC6); conditions: Recombinant PAD1-4, BAEE citrulline colorimetric absorbance; PAD1; at 10 µM; active compounds read high
[2] = target: Protein-arginine deiminase type-3 (Homo sapiens) (UniProt Q9ULW8); conditions: Recombinant PAD1-4, BAEE citrulline colorimetric absorbance; PAD3; at 10 µM; active compounds read high
[3] = target: Protein-arginine deiminase type-2 (Homo sapiens) (UniProt Q9Y2J8); conditions: Recombinant PAD1-4, BAEE citrulline colorimetric absorbance; PAD2; at 10 µM; active compounds read high
[4] = target: Protein-arginine deiminase type-4 (Homo sapiens) (UniProt Q9UM07); conditions: Recombinant PAD1-4, BAEE citrulline colorimetric absorbance; PAD4; at 10 µM; active compounds read high

Measured: inhibition

Chain of Protein-arginine deiminase type-3 (Homo sapiens) (Q9ULW8 whole entry, looked up): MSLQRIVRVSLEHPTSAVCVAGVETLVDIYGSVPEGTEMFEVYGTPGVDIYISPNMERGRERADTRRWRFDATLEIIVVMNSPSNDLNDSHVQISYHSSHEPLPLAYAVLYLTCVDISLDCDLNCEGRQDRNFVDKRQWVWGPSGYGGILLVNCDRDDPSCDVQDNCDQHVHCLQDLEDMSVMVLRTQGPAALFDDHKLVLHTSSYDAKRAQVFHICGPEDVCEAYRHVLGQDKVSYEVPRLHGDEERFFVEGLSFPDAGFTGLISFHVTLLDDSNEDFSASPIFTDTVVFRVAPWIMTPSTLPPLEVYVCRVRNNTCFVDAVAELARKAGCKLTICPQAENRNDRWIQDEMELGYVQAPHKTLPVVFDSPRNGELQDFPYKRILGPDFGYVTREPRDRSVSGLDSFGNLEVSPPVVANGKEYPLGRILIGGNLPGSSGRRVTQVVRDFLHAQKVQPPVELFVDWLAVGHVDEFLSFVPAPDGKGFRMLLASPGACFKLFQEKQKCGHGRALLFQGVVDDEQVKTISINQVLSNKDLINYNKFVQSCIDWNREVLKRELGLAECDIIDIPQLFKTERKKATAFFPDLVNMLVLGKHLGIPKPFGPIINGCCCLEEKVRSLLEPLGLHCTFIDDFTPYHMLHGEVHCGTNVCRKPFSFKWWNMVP
Chain of Protein-arginine deiminase type-2 (Homo sapiens) (Q9Y2J8 whole entry, looked up): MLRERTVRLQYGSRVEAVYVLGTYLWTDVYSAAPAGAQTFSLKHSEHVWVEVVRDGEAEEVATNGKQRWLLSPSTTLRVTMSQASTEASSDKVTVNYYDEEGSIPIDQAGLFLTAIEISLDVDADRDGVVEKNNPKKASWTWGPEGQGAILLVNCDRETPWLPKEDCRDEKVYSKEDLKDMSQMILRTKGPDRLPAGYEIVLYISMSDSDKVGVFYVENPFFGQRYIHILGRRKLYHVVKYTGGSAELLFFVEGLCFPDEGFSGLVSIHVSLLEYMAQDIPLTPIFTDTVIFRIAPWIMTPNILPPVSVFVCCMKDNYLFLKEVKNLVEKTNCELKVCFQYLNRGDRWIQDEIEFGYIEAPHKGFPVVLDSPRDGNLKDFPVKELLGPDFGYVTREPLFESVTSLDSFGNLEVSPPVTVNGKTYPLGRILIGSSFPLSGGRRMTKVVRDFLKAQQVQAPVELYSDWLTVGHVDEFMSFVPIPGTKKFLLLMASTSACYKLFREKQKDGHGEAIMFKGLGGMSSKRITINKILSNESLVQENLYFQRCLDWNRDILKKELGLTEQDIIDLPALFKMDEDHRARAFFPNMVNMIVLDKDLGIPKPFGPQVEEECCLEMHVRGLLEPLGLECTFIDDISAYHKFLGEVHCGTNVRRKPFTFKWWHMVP
Chain of Protein-arginine deiminase type-1 (Homo sapiens) (Q9ULC6 whole entry, looked up): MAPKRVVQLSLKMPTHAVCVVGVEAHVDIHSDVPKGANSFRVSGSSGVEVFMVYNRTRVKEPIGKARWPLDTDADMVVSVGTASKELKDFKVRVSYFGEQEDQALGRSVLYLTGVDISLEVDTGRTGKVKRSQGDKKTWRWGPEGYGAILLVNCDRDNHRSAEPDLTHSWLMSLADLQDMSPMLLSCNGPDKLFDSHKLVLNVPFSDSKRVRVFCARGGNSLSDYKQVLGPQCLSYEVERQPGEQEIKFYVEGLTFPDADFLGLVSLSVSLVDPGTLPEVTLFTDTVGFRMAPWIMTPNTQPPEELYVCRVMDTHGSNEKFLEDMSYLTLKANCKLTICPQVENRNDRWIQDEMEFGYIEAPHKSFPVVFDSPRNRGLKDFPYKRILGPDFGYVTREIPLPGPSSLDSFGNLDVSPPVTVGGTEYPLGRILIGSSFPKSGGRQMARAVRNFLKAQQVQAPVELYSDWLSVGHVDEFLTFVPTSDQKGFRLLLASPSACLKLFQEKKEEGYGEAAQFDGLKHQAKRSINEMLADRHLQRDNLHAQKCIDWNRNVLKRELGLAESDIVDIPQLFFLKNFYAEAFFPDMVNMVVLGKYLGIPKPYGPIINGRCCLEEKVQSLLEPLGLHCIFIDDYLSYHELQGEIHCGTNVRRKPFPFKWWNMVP
Chain of Protein-arginine deiminase type-4 (Homo sapiens) (Q9UM07 whole entry, looked up): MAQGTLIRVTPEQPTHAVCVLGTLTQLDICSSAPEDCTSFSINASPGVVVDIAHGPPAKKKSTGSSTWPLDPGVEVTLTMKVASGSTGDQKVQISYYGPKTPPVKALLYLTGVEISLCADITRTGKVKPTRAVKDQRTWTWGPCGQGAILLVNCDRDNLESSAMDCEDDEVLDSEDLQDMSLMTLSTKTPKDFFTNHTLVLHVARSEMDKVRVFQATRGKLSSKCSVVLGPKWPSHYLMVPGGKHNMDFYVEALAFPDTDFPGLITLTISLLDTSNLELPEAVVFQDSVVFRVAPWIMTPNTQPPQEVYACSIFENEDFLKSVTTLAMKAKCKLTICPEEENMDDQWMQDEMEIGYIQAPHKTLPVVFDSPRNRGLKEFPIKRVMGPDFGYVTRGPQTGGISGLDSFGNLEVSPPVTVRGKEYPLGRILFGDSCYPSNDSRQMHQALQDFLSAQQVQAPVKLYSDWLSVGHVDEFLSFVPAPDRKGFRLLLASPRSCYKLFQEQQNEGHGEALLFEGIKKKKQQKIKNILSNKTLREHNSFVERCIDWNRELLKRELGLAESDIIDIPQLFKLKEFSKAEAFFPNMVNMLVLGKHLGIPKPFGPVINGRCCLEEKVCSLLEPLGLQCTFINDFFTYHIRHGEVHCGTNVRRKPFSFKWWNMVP

Cc1cc(N(C)NC(=S)Nc2ccccc2)nc(C)n1
inactive: [1] 5% | [2] -6% | [3] 17% | [4] 1%

COc1cccc(NC(=O)C2c3cc(OC)c(OC)cc3C(=O)N(C)C2c2cccnc2)c1 (configuration not stated)
inactive: [1] 5% | [2] -3% | [3] 26% | [4] 8%

Cc1oc2c(C)c(O)ccc2c(=O)c1-c1ccc2ccccc2n1
inactive: [1] 17% | [2] -19% | [3] 9% | [4] 18%

COc1ccc(-c2cc(=O)[nH][nH]2)cc1
inactive: [1] 14% | [2] 3% | [3] 26% | [4] 20%

CCN(CC)S(=O)(=O)c1ccc(N=NC2=C(O)CCCC2=O)cc1
inactive: [1] 0% | [2] 17% | [3] 15% | [4] 10%

CC(NC(=O)Nc1ccc(O)cc1)(C(F)(F)F)C(F)(F)F
inactive: [1] 8% | [2] -11% | [3] -10% | [4] 14%

CCN(CC)c1cccc(OC2=NS(=O)(=O)c3ccccc32)c1
inactive: [1] 3% | [2] 6% | [3] 18% | [4] 16%

Cc1nonc1OC(C)CNc1ccc([N+](=O)[O-])cc1 (configuration not stated)
inactive: [1] 8% | [2] 7% | [3] 27% | [4] 12%

S=C(NCc1ccco1)Nc1cccc(Cl)c1
inactive: [1] 17% | [2] -2% | [3] 13% | [4] 11%

Cn1c(=O)c2c(ncn2CC(=O)Nc2nc(-c3ccccc3Cl)cs2)n(C)c1=O
inactive: [1] 8% | [2] 3% | [3] 45% | [4] 25%

Cc1nn(-c2cccc(Cl)c2)c2c1C(c1cccnc1)C(C#N)=C(N)O2 (configuration not stated)
inactive: [1] -3% | [2] -4% | [3] 7% | [4] 1%

CC(=O)N(Cc1cc(=O)[nH]c2ccccc12)c1cccc(C)c1
inactive: [1] 4% | [2] -3% | [3] 21% | [4] 16%

COc1cccc2cc(C(=O)NC3CC(C)(C)NC(C)(C)C3)c(=O)oc12
inactive: [1] -2% | [2] -2% | [3] 3% | [4] 17%

CCOc1nc(Nc2ccc(OC)cc2OC)nc(OCC)n1
inactive: [1] 27% | [2] -2% | [3] 12% | [4] 9%

COc1cccc(/C=C2/CN(C)CC3=C2OC(N)=C(C#N)C3c2cccc(OC)c2)c1 (configuration not stated)
inactive: [1] 18% | [2] -20% | [3] 20% | [4] 20%

Cc1ccc(CNC(=O)c2ccc(C)c(S(=O)(=O)N3CCCCC3)c2)cc1
inactive: [1] 21% | [2] -2% | [3] 15% | [4] 13%

Cc1ccc(C2CC(=O)Oc3cc(O)ccc32)cc1 (configuration not stated)
inactive: [1] 7% | [2] -3% | [3] 17% | [4] 12%

CN(C)CCN(Cc1ccccc1)c1ccccn1
inactive: [1] -7% | [2] -9% | [3] 22% | [4] 6%

COC(=O)c1cc(C)nc(Sc2ccccc2N)n1
inactive: [1] 10% | [2] -14% | [3] 15% | [4] 6%

N#CCCn1[nH]c(-c2ccccc2)cc1=O
inactive: [1] 3% | [2] -12% | [3] 39% | [4] 28%

CN(C)CCCNc1cn[nH]c(=O)c1Cl
inactive: [1] 27% | [2] 2% | [3] 20% | [4] 42%

Cc1c(C(=O)N2CCCCC2)c(S(=O)(=O)N2CCN(c3ccc(Cl)cc3)CC2)c(C)n1C
inactive: [1] 6% | [2] -6% | [3] 4% | [4] 15%

O=c1cc(-c2ccc(Cl)cc2)[nH][nH]1
inactive: [1] 1% | [2] -4% | [3] -6% | [4] 4%

Cc1cc(-c2nnc(SCC(=O)Nc3ccc(F)c(F)c3)n2N)n[nH]1
inactive: [1] 1% | [2] -7% | [3] 6% | [4] -1%

COc1ccc(CCNC(=O)COC(=O)c2ccc(C)s2)cc1
inactive: [1] 5% | [2] -24% | [3] 9% | [4] 3%

COc1cccc(NC(=O)CN(C)C(=O)C23CC4CC(CC(Cl)(C4)C2)C3)c1
inactive: [1] 6% | [2] -3% | [3] 20% | [4] 26%

COc1ccc(S(=O)(=O)Nc2ccccc2C)cc1
inactive: [1] 31% | [2] -3% | [3] 14% | [4] 18%

COc1ccc(C2C(C#N)=C(N)N(N(C)C)C3=C2C(=O)CCC3)cc1 (configuration not stated)
inactive: [1] 9% | [2] -1% | [3] 7% | [4] 21%

N#CCCN(C(=O)Cn1nc(C(=O)O)c2ccccc2c1=O)c1ccccc1
inactive: [1] 13% | [2] -12% | [3] 10% | [4] 17%

Cc1nn(-c2ccccc2)c(C)c1NC(=O)COc1ccc(Cl)cc1Cl
inactive: [1] 2% | [2] -3% | [3] 17% | [4] 16%

Cc1c(NC(=O)CSc2nccn2C)c(=O)n(-c2ccccc2)n1C
inactive: [1] 22% | [2] -18% | [3] 3% | [4] 0%

Cc1cc2ncn(-c3ncccc3[N+](=O)[O-])c2cc1C
inactive: [1] 25% | [2] 8% | [3] -8% | [4] 24%

O=C(NCC1CCCO1)c1cc2c([nH]c3ccccc32)c(-c2ccc(F)cc2)n1 (configuration not stated)
inactive: [1] 5% | [2] -2% | [3] 20% | [4] -3%
